Patent publication US8987267B2, “2-substituted-8-alkyl-7-OXO-7,8-dihydropyrido[2,3-D]pyrimidine-6-carbonitriles and uses thereof in treating proliferative disorders” (Temple University—of the Commonwealth System of Higher …, priority 2010, dated 2015)
pIC50: −log10 of the molar value.

Experiments:
A549 = assay: Cytotoxicity assay, viable cell count; format: cell-based; conditions: Homo sapiens; A549, NSCLC; 96 h continuous treatment, trypan blue
Protocol: (§1) Cells (1×10^5) were plated into 6-well dishes and 24 h later 8-cyclopentyl-2-((4-(4-methylpiperazin-1-yl)phenyl)amino)-7-oxo-7,8-dihydropyrido[2,3-d]pyrimidine-6-carbonitrile (12) was added at five different concentrations over a 2 log dilution (1-100 μM). The total number of viable cells was determined after 96 h of continuous treatment by staining with trypan blue and counting the number of non-staining cells (viable) remaining in each well using a hemacytometer. The percentage of viable cells remaining was calculated as follows: # viable cells (compound treated)/# viable cells (DMSO treated)*100.

BT20 = assay: Cytotoxicity assay, viable cell count; format: cell-based; conditions: Homo sapiens, BT-20; BT20, Breast; 96 h continuous treatment, trypan blue
Protocol: as §1

BT474 = assay: Cytotoxicity assay, viable cell count; format: cell-based; conditions: Homo sapiens, BT-474; BT474, ErbB2 + Breast; 96 h continuous treatment, trypan blue
Protocol: as §1

COLO-205 = assay: Cytotoxicity assay, viable cell count; format: cell-based; conditions: Homo sapiens; COLO-205, Colon; 96 h continuous treatment, trypan blue
Protocol: as §1

DLD-1 = assay: Cytotoxicity assay, viable cell count; format: cell-based; conditions: Homo sapiens; DLD-1, COLO-RECTAL; 96 h continuous treatment, trypan blue
Protocol: as §1

DU145 = assay: Cytotoxicity assay, viable cell count; format: cell-based; conditions: Homo sapiens, DU-145; DU145, PROSTATE; 96 h continuous treatment, trypan blue
Protocol: as §1

JURKAT = assay: Cytotoxicity assay, viable cell count; format: cell-based; conditions: Homo sapiens, T-Cell Lymphoma, 96 h continuous treatment, trypan blue
Protocol: as §1

K562 = assay: Cytotoxicity assay, viable cell count; format: cell-based; conditions: Homo sapiens; K562, CML; 96 h continuous treatment, trypan blue
Protocol: as §1

MCF-7 = assay: Cytotoxicity assay, viable cell count; format: cell-based; conditions: Homo sapiens, MCF7; MCF-7, ER + Breast; 96 h continuous treatment, trypan blue
Protocol: as §1

MDA-MB-468 = assay: Cytotoxicity assay, viable cell count; format: cell-based; conditions: Homo sapiens, MDA-MB-468, 96 h
Protocol: as §1

MIA-PaCa-2 = assay: Cytotoxicity assay, viable cell count; format: cell-based; conditions: Homo sapiens; MIA-PaCa-2, Pancreatic; 96 h continuous treatment, trypan blue
Protocol: as §1

N417 = assay: Cytotoxicity assay, viable cell count; format: cell-based; conditions: N417, SCLC; 96 h continuous treatment, trypan blue
Protocol: as §1

N87 = assay: Cytotoxicity assay, viable cell count; format: cell-based; conditions: N87, Gastric(ErbB2+); 96 h continuous treatment, trypan blue
Protocol: as §1

RAJI = assay: Cytotoxicity assay, viable cell count; format: cell-based; conditions: Homo sapiens, B-Cell Lymphoma, 96 h continuous treatment, trypan blue
Protocol: as §1

SK-BR-3 = assay: Cytotoxicity assay, viable cell count; format: cell-based; conditions: Homo sapiens; SK-BR-3, ErbB2 + Breast; 96 h continuous treatment, trypan blue
Protocol: as §1

SK-OV-3 = assay: Cytotoxicity assay, viable cell count; format: cell-based; conditions: Homo sapiens; SK-OV-3, Ovarian; 96 h continuous treatment, trypan blue
Protocol: as §1

SNU-398 = assay: Cytotoxicity assay, viable cell count; format: cell-based; conditions: Homo sapiens; SNU-398, Liver; 96 h continuous treatment, trypan blue
Protocol: as §1

SNU-449 = assay: Cytotoxicity assay, viable cell count; format: cell-based; conditions: Homo sapiens; SNU-449, Liver; 96 h continuous treatment, trypan blue
Protocol: as §1

SNU-475 = assay: Cytotoxicity assay, viable cell count; format: cell-based; conditions: Homo sapiens; SNU-475, Hepatocellular carcinoma; 96 h continuous treatment, trypan blue
Protocol: as §1

SW480 = assay: Cytotoxicity assay, viable cell count; format: cell-based; conditions: Homo sapiens; SW480, COLO-RECTAL; 96 h continuous treatment, trypan blue
Protocol: as §1

U266 = assay: Cytotoxicity assay, viable cell count; format: cell-based; conditions: Homo sapiens, U-266; U266, Multiple Myeloma; 96 h continuous treatment, trypan blue
Protocol: as §1

U87 = assay: Cytotoxicity assay, viable cell count; format: cell-based; conditions: Homo sapiens, U-87 MG; U87, Glioblastoma; 96 h continuous treatment, trypan blue
Protocol: as §1

ABL2/ARG = ABL2/ARG (Homo sapiens, UniProt P42684); assay: Kinase inhibition panel; format: biochemical; conditions: 10 μM ATP
Protocol: (§2) The compounds in Table 4 were tested for the ability to inhibit the kinase activity of the listed protein kinases.

CDK5/p25 = CDK5/p25 (Homo sapiens, UniProt Q00535); assay: Kinase inhibition panel; format: biochemical; conditions: 10 μM ATP
Protocol: as §2

CDK6/cyclinD1 = CDK6/cyclinD1 (Homo sapiens, UniProt Q00534); assay: Kinase inhibition panel; format: biochemical; conditions: 10 μM ATP
Protocol: as §2

CDK9/cyclin K = CDK9/cyclin K (Homo sapiens, UniProt P50750); assay: Kinase inhibition panel; format: biochemical; conditions: 10 μM ATP
Protocol: as §2

EPHA1 = EPHA1 (Homo sapiens, UniProt P21709); assay: Kinase inhibition panel; format: biochemical; conditions: 10 μM ATP
Protocol: as §2

EphB1 = EphB1 (Homo sapiens, UniProt P54762); assay: Kinase inhibition panel; format: biochemical; conditions: 10 μM ATP
Protocol: as §2

EphB4 = EphB4 (Homo sapiens, UniProt P54760); assay: Kinase inhibition panel; format: biochemical; conditions: 10 μM ATP
Protocol: as §2

LCK = LCK (Homo sapiens, UniProt P06239); assay: Kinase inhibition panel; format: biochemical; conditions: 10 μM ATP
Protocol: as §2

PAK3 = PAK3 (Homo sapiens, UniProt O75914); assay: Kinase inhibition panel; format: biochemical; conditions: 10 μM ATP
Protocol: as §2

SIK2/SNF1LK2 = SIK2/SNF1LK2 (Homo sapiens, UniProt Q9H0K1); assay: Kinase inhibition panel; format: biochemical; conditions: 10 μM ATP
Protocol: as §2

TAOK2ITA01 = TAOK2ITA01 (Homo sapiens, UniProt Q9UL54); assay: Kinase inhibition panel; format: biochemical; conditions: 10 μM ATP
Protocol: as §2

TGFbR2 = TGFbR2 (Homo sapiens, UniProt P37173); assay: Kinase inhibition panel; format: biochemical; conditions: 10 μM ATP
Protocol: as §2

FRK/PTK5 = FRK/PTK5 (Homo sapiens, UniProt P42685); assay: Kinase inhibition panel; format: biochemical; conditions: 10 μM ATP

CDK9/cyclin K, sequence (P50750 whole entry, species assumed): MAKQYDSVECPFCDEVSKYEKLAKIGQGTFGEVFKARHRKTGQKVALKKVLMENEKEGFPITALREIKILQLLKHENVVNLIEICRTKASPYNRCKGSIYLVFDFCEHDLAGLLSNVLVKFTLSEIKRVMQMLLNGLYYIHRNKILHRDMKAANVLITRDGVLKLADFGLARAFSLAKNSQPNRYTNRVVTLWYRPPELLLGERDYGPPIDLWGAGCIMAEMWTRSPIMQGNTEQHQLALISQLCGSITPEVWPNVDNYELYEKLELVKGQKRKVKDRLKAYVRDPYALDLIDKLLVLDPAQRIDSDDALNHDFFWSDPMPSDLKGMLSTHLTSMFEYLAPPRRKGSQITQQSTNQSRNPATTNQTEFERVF
CDK9/cyclin K, sequence (O75909 whole entry partner, species assumed): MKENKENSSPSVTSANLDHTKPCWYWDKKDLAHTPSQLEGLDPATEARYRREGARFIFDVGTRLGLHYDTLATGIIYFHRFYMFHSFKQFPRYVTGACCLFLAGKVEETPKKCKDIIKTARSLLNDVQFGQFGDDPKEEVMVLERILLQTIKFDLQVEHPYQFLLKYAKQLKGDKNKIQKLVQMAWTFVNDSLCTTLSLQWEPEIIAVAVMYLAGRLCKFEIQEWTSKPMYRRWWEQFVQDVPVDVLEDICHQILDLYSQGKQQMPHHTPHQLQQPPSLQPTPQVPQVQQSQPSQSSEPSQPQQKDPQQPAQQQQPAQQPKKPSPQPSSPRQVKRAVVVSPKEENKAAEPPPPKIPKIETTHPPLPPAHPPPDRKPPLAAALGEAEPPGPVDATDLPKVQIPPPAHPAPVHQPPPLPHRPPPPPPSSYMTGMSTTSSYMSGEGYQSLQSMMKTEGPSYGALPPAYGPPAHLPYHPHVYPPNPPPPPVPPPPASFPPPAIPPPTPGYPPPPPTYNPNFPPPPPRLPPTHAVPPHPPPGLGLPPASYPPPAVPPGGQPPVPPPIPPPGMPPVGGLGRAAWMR
EphB4, sequence (P54760 16-987, species assumed): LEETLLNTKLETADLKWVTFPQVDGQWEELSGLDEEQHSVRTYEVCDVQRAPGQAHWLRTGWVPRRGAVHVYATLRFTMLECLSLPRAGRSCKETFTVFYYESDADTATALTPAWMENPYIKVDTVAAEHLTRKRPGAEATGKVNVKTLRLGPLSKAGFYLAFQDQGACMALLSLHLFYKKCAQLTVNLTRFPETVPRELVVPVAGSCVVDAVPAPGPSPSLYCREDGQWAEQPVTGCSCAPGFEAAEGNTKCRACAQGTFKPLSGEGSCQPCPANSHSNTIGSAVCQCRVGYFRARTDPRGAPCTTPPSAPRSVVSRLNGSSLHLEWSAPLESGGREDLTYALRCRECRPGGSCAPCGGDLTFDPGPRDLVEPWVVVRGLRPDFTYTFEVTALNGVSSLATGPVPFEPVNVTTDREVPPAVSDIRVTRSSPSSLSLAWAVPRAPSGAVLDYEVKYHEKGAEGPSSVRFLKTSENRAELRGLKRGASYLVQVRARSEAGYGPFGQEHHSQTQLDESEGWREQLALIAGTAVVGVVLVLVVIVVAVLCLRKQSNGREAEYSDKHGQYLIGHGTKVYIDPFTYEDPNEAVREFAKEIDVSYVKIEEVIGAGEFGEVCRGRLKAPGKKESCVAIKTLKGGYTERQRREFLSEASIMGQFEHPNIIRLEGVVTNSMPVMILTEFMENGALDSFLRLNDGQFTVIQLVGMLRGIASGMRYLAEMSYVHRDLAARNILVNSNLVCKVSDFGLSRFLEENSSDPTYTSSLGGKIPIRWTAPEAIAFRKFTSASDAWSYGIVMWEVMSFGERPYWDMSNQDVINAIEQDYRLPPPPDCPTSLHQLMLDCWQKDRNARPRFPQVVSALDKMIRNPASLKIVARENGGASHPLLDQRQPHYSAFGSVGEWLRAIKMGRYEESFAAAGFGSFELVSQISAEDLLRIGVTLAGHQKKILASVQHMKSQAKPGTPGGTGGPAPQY
ABL2/ARG, sequence (P42684 whole entry): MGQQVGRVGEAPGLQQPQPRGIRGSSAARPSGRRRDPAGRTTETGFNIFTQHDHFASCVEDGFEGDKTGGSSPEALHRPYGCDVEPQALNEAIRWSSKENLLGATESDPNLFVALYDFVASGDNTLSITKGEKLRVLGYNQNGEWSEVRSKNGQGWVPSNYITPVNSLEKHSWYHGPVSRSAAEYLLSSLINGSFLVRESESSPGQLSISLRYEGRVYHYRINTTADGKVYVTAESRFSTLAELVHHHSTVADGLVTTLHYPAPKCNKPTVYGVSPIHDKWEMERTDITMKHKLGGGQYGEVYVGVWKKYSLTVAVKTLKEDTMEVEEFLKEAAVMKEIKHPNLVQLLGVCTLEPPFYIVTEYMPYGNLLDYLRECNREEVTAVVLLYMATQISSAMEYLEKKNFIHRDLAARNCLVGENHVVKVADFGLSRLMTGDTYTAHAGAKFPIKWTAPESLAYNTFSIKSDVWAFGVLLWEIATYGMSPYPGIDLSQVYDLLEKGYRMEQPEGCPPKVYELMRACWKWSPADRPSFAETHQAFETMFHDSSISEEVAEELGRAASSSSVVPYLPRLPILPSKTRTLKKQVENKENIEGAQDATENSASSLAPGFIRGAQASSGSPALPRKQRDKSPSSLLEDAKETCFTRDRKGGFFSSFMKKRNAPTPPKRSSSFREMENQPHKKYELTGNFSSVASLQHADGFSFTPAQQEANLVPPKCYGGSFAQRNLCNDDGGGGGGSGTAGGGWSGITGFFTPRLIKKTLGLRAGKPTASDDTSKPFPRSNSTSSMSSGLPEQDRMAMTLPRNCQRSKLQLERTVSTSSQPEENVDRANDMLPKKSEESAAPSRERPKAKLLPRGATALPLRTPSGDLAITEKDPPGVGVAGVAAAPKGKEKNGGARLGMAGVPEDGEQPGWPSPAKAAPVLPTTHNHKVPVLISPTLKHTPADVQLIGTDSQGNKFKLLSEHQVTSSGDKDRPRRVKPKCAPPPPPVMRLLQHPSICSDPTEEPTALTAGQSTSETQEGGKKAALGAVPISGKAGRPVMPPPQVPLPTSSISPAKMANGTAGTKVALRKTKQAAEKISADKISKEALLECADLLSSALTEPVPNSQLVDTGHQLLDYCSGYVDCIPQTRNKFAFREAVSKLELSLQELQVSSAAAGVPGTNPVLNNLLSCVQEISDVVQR
LCK, sequence (P06239 whole entry, species assumed): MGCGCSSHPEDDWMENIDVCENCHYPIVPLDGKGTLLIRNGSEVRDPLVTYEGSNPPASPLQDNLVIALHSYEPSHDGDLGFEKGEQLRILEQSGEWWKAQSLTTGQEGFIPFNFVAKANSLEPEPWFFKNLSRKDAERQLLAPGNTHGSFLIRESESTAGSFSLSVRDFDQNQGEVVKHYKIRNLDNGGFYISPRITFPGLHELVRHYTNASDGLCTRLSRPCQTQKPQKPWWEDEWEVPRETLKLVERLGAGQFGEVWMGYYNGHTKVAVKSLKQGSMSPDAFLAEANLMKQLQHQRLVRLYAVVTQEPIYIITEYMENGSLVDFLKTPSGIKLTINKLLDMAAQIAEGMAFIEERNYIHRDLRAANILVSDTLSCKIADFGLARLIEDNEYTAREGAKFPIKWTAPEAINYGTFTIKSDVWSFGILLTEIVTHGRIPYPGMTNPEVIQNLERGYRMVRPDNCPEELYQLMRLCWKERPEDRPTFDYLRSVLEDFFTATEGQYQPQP
CDK5/p25, sequence (Q00535 whole entry, species assumed): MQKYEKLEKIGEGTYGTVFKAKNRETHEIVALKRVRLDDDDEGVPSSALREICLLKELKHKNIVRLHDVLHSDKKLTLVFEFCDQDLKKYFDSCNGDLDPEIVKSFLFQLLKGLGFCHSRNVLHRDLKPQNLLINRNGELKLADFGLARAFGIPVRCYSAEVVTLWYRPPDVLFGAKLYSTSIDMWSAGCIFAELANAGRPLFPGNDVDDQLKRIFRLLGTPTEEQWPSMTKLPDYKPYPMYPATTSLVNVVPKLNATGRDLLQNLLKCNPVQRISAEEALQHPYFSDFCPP
CDK5/p25, sequence (Q15078 99-307 partner limits assumed, species assumed): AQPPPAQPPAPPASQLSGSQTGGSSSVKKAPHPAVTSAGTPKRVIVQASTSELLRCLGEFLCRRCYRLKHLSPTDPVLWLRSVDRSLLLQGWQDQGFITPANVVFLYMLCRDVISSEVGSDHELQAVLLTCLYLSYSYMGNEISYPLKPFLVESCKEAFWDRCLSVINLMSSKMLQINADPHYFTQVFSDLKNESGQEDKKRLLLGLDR
CDK6/cyclinD1, sequence (Q00534 whole entry, species assumed): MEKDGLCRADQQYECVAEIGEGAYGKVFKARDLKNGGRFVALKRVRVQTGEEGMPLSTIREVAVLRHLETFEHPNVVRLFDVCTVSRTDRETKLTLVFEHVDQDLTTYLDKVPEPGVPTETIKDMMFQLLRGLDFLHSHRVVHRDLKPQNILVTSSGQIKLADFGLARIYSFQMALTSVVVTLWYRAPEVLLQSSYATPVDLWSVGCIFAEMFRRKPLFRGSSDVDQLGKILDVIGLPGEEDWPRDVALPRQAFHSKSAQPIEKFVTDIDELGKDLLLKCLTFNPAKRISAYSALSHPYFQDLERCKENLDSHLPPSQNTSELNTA
CDK6/cyclinD1, sequence (P24385 whole entry partner, species assumed): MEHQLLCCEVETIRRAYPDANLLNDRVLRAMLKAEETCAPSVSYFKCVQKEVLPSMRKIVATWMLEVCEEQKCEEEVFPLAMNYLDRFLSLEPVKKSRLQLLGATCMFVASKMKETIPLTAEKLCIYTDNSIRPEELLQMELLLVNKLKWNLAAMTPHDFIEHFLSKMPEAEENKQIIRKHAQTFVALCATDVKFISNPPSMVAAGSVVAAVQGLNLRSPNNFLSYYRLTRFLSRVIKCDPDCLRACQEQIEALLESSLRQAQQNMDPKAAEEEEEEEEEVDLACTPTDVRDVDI

pIC50 (ABL2/ARG): 7.04
pIC50 (CDK5/p25): 6.58
pIC50 (CDK6/cyclinD1): 7.74
pIC50 (CDK9/cyclin K): 7.57
pIC50 (EPHA1): 7.43
pIC50 (EphB1): 7.57
pIC50 (EphB4): 6.92
pIC50 (LCK): 7.30
pIC50 (PAK3): 5.71
pIC50 (SIK2/SNF1LK2): 7.01
pIC50 (TAOK2ITA01): 7.16
pIC50 (TGFbR2): 7.21
pIC50 (FRK/PTK5): 6.24
Structure (SMILES): CN1CCN(c2ccc(Nc3ncc4cc(C#N)c(=O)n(C5CCCC5)c4n3)cc2)CC1 [Compound 12, 8-cyclopentyl-2-((4-(4-methylpiperazin-1-yl)phenyl)amino)-7-oxo-7,8-dihydropyrido[2,3-d]pyrimidine-6-carbonitrile]
GI50 (A549): 200 nM
GI50 (BT20): 100 nM
GI50 (BT474): 250 nM
GI50 (COLO-205): 200 nM
GI50 (DLD-1): 100 nM
GI50 (DU145): 750 nM
GI50 (JURKAT): 150 nM
GI50 (K562): 500 nM
GI50 (MCF-7): 150 nM
GI50 (MDA-MB-468): 1500 nM
GI50 (MIA-PaCa-2): 250 nM
GI50 (N417): 250 nM
GI50 (N87): 900 nM
GI50 (RAJI): 250 nM
GI50 (SK-BR-3): 600 nM
GI50 (SK-OV-3): 750 nM
GI50 (SNU-398): 500 nM
GI50 (SNU-449): 750 nM
GI50 (SNU-475): 300 nM
GI50 (SW480): 100 nM
GI50 (U266): 200 nM
GI50 (U87): 100 nM
